How the values were obtained:
physchem = assay type: physicochemical; conditions: water
Method: The solubility of sivelestat sodium in water is less than 0.4 mg/mL, which cannot meet the administration requirements as an injection or inhalation preparation. Besides, sivelestat sodium is prone to hydrolysis in aqueous solution, generating the impurity with the following structure (hereinafter referred to as “impurity A”).

[1] = lyophilized preparation of Document 5 (anhydrous sodium carbonate, sodium chloride) kept at 60° C. for two weeks, per Document 4; cited from earlier work

solubility (physchem): < 400 µg/mL
SMILES: CC(C)(C)C(=O)Oc1ccc(S(=O)(=O)Nc2ccccc2C(=O)NCC(=O)O)cc1 [sivelestat sodium, N-[2-[[[4-(2,2-dimethyl-1-oxopropoxy)phenyl]sulfonyl]amino]benzoyl]-(S)-glycine]
residual rate of sivelestat sodium [1]: 91.4%

From patent US20240082203A1, “PHARMACEUTICAL COMPOSITION FOR INHALATION” (SHANGHAI HUILUN BIOLOGICAL TECHNOLOGY CO., LTD., priority 2020, published 2024)
